According to patent publication US20080112955A1, “METHOD AND COMPOSITION FOR PREVENTING PAIN IN SICKLE CELL PATIENTS” (TRF PHARMA, INC., priority 2002, published 2008):

B1: trypsin: protease used at 0.02% to pretreat erythrocytes (protein, UniProt P00760 24-246, looked up)
Serine protease 1: IVGGYTCGANTVPYQVSLNSGYHFCGGSLINSQWVVSAAHCYKSGIQVRLGEDNINVVEGNEQFISASKSIVHPSYNSNTLNNDIMLIKLKSAASLNSRVASISLPTSCASAGTQCLISGWGNTKSSGTSYPDVLKCLKAPILSDSSCKSAYPGQITSNMFCAGYLEGGKDSCQGDSGGPVVCSGKLQGIVSWGSGCAQKNKPGVYTKVCNYVSWIKQTIASN

Key:
P-selectin-Ig chimera = assay: nonstatic rotatory adherence assay: erythrocytes on immobilized P-selectin-Ig chimera; format: cell-based, human; details: for percent adherence of nonsickle cells to P-selectin with agent / percent adherence of sickle cells to P-selectin with agent: mean±SEM, 100% = untreated nonsickle erythrocytes on BSA or Siglec, 5 mM EDTA or sialidase; for reduction of adherence of nonsickle cells to P-selectin / reduction of adherence of sickle cells to P-selectin: 5 mM EDTA present or RBCs pretreated with 0.1 U/mL sialidase
Method: (§1) 400 ng bovine serum albumin (BSA; Sigma), a sialic acid-binding lectin (Siglec)-6-Ig chimera, mutated Siglec-7-Ig chimera, or P-selectin-Ig chimera was immobilized on microtiter wells. […] These chimeras were applied to the wells in 10 mM carbonate buffer overnight and then blocked with 0.5% BSA in Hanks buffered salt solution (University of California, San Francisco, Cell Culture Facility) before incubation with RBCs using a published rotatory adhesion assay. Erythrocyte adherence to BSA, Siglec-6, mutant Siglec-7, or P-selectin was measured as the number of RBCs observed in 8 random 0.04-mm2 fields for each condition. The adherence data are presented as percent adherence where 100% is the mean number of untreated nonsickle erythrocytes/field in a well in which BSA or Siglec was immobilized.
(§2) To determine whether sialic acid on erythrocytes is a recognition determinant for P-selectin, prior to testing RBC adherence the erythrocytes were treated with sialidase using a published method. Packed RBCs were mixed with an equal volume of buffer or 0.1 U/mL Vibrio cholerae sialidase (Calbiochem, San Diego). […] Efficacy of sialidase on RBCs was confirmed by agglutination with peanut extract lectin (Arachis hypogea lectin, Sigma).
(§3) For each experiment mean adherence was set arbitrarily at 100% for the control data. The mean adherence of data derived from perturbations of control conditions were calculated as a percentage relative to the control. The average of the means from replicate experiments was then calculated. The uncertainty of the estimate of the means from the data distributed in each set is described as SEM. An SEM of 0% resulted when control data sets were normalized to 100%. We used the paired one-tailed Student test to compare changes in adhesion resulting from different perturbations of the system.

[1] = tested on: human umbilical vein endothelial cells (HUVECs); assay: static gravity adherence assay with dip rinse: erythrocyte adherence to endothelial monolayers; format: cell-based; details: for percent adherence of nonsickle RBCs to thrombin-treated endothelium with agent / percent adherence of nonsickle RBCs to untreated endothelium with agent / percent adherence of sickle cells to thrombin-treated endothelium with agent / percent adherence of sickle cells to untreated endothelium with agent: mean±SEM, 100% = nonsickle RBCs on untreated HUVECs, mAbs 1:200, sLeX 100 μM, sialidase 0.1 U/mL; for percent adherence of nonsickle RBCs to thrombin-treated endothelium with agent / percent adherence of nonsickle RBCs to untreated endothelium with agent / percent adherence of sickle cells to thrombin-treated endothelium with agent / percent adherence of sickle cells to untreated endothelium with agent / reduction of adherence of nonsickle RBCs to untreated endothelium: sLac 500 μM; for reduction of adherence of nonsickle RBCs to thrombin-treated endothelium / reduction of adherence of nonsickle RBCs to untreated endothelium / reduction of adherence of sickle cells to thrombin-treated endothelium / reduction of adherence of sickle cells to untreated endothelium: static, vs no agent, sialidase 0.1 U/mL on RBCs; for reduction of adherence of nonsickle RBCs to thrombin-treated endothelium / reduction of adherence of sickle cells to thrombin-treated endothelium: HUVECs 0.1 U/mL thrombin 5 min; for reduction of adherence of nonsickle RBCs to thrombin-treated endothelium / reduction of adherence of sickle cells to thrombin-treated endothelium / reduction of adherence of sickle cells to untreated endothelium: mAbs 1:200, sLac 500 μM; for reduction of adherence of nonsickle RBCs to untreated endothelium / reduction of adherence of sickle cells to untreated endothelium: untreated HUVECs; for reduction of adherence of nonsickle RBCs to untreated endothelium: mAbs 1:200 on HUVECs; for reduction of adherence of sickle cells to thrombin-treated endothelium / reduction of adherence of sickle cells to untreated endothelium: sickle RBCs; for reduction of adherence compared with sLac present: 100 μM sLeX
Method: Thrombin treatment of human umbilical vein endothelial cells (HUVECs) and the static gravity adherence assay with dip rinse were performed as previously described. When 90% confluent, HUVECs (Clonetics, San Diego, Calif.) were treated with 0.1 U/mL thrombin (Sigma Chemicals, St Louis, Mo.) or medium alone for 5 minutes before assaying erythrocyte adherence. Adherent RBCs were counted microscopically in 8 randomly selected 0.15-mm2 fields for each study condition. The adherence data may be presented as percent adherence where 100% is the mean adherence of nonsickle RBCs to untreated HUVECs.
Because of potential modulatory effects of heparin on adherence, the static adherence assay was used to compare the adhesivity of sickle cells and autologous plasma according to whether they were prepared with citrate anticoagulant or with heparin. […] The contribution of P-selectin to thrombin-enhanced adherence was determined by comparing the effects on adherence of exposing HUVECs to no antibody, a 1:200 dilution of nonblocking P-selectin monoclonal antibodies (mAbs) AC1.2 (BD Pharmingen, San Diego, Calif.), or a 1:200 dilution of blocking P-selectin mAb 9E1 (R & D Systems, Minneapolis, Minn.).
To determine whether sialic acid on erythrocytes is a recognition determinant for P-selectin, prior to testing RBC adherence the erythrocytes were treated with sialidase using a published method. Packed RBCs were mixed with an equal volume of buffer or 0.1 U/mL Vibrio cholerae sialidase (Calbiochem, San Diego).
as §3

Siglec-6-Ig chimera = assay: nonstatic rotatory adherence assay: erythrocytes on immobilized control Siglec-6-Ig chimera; format: cell-based, human; details: mean±SEM, RBCs pretreated with sialidase
Method: as §1
To determine whether sialic acid on erythrocytes is a recognition determinant for P-selectin, prior to testing RBC adherence the erythrocytes were treated with sialidase using a published method. Packed RBCs were mixed with an equal volume of buffer or 0.1 U/mL Vibrio cholerae sialidase (Calbiochem, San Diego). […]
For each experiment mean adherence was set arbitrarily at 100% for the control data. The mean adherence of data derived from perturbations of control conditions were calculated as a percentage relative to the control. The average of the means from replicate experiments was then calculated. […]

RBCs = assay: hemolysis of sialidase-treated RBCs by colorimetric spectrophotometry; format: cell-based, human; details: 0.1 U/mL sialidase
Method: as §2

[2] = tested on: thrombin-treated HUVECs (endothelial cell P-selectin); assay: parallel plate flow adhesion of sickle erythrocytes to HUVECs; format: cell-based, human; details: n=10
Source text: Blood samples obtained from subjects with sickle cell disease and from healthy control subjects, as approved by the Committee on Human Research at the University of California-San Francisco (UCSF), were drawn into citrate. The buffy coat was removed after the initial centrifugation and after each of 3 subsequent washes of the remaining erythrocytes in phosphate buffered saline (PBS) and one wash in HAH buffer (Hanks balanced salt solution [HBSS; UCSF Cell Culture Facility, San Francisco, Calif.], 1% bovine serum albumin [BSA, Fraction V; Sigma, St Louis, Mo.], 50 mM HEPES [N-2-hydroxyethylpiperazine-N′-2- ethanesulfonic acid; Sigma], pH 7.40). Erythrocytes to be used in flow adhesion studies were suspended to a 0.5% hematocrit. To assess for leukocyte contamination, the erythrocyte preparation was exposed to 10 μg/mL rhodamine 6G, which stains leukocytes but not erythrocytes, and washed 3 times in HAH. No leukocytes were detected in the erythrocyte suspensions prepared using the above protocol. […]
Rolling cells were defined as those sickle cells that were in the same microscopic focal plane as the immobile surface or endothelial monolayer and moving at a distinctly slower velocity than the bulk flow. Those cells determined to be rolling were in contact with the substrata throughout their entire transit through the field of observation, which excludes those cells in brief transient contact with the substrate. Data on rolling adherence are expressed as the mean numbers of rolling red blood cells (cells/mm^2) and the mean rolling velocity of these cells (mm/s) from multiple experiments; error is expressed as SEM. The microscopic field in which adherent cells were measured has an area of 0.15 mm^2 and a volume of 0.038 mm^3. […] The velocity of rolling cells was determined by the time required for a cell to roll across the 0.5-mm field (0.5 mm/s). […] Data on firm adhesion are expressed as the mean numbers of firmly adherent red blood cells in the area described above. Statistical significance was determined using the Student t test. […]

[3] = HUVECs treated with 0.1 U/mL thrombin for 5 minutes vs untreated
[4] = erythrocytes pretreated with 0.02% trypsin, data not shown

Molecule | percent adherence of nonsickle cells to P-selectin with agent (P-selectin-Ig chimera) | percent adherence of sickle cells to P-selectin with agent (P-selectin-Ig chimera) | reduction of adherence of nonsickle cells to P-selectin (P-selectin-Ig chimera) | reduction of adherence of sickle cells to P-selectin (P-selectin-Ig chimera) [%] | percent adherence of nonsickle RBCs to thrombin-treated endothelium with agent [1] | percent adherence of nonsickle RBCs to untreated endothelium with agent [1] | percent adherence of sickle cells to thrombin-treated endothelium with agent [1] | percent adherence of sickle cells to untreated endothelium with agent [1] | reduction of adherence of nonsickle RBCs to thrombin-treated endothelium [1] | reduction of adherence of nonsickle RBCs to untreated endothelium [1] | reduction of adherence of sickle cells to thrombin-treated endothelium [1] | reduction of adherence of sickle cells to untreated endothelium [1] | further results
O=C(O)CN(CCN(CC(=O)O)CC(=O)O)CC(=O)O [EDTA] | 95%±11% | 177%±18% | 35% | 32 |  |  |  |  |  |  |  |  | 
CC(=O)N[C@H]1[C@H]([C@H](O)[C@H](O)CO)O[C@@](O[C@H]2[C@@H](O)[C@@H](CO)O[C@@H](O[C@H]3[C@H](O)[C@@H](O)C(O)O[C@@H]3CO)[C@@H]2O)(C(=O)O)C[C@@H]1O (stereo partly shown) [sLac, 3′-sialyl-lactose] |  |  |  |  | 162%±28% | 105%±15% | 304%±74% | 144%±44% | Neither did sLac reduce significantly | not reduced significantly | Neither did sLac reduce significantly | not reduced significantly | 
CC(=O)NC1C(O)CC(OC2C(O)C(CO)OC(OC3C(CO)OC(O)C(NC(C)=O)C3OC3OC(C)C(O)C(O)C3O)C2O)(C(=O)O)OC1C(O)C(O)CO (stereo not shown) [sLeX, sialyl Lewis X (sLeX) tetrasaccharide] |  |  |  |  | 82%±41% | 55%±12% | 196%±38% | 91±8% |  |  |  |  | reduction of adherence compared with sLac present ([1]; nonsickle cells, thrombin-treated endothelial cells): 49%; reduction of adherence compared with sLac present ([1]; nonsickle cells, untreated endothelial cells, not significant): ~48%; reduction of adherence compared with sLac present ([1]; sickle cells, thrombin-treated endothelial cells): 36%; reduction of adherence compared with sLac present ([1]; sickle cells, untreated endothelial cells, not significant): ~37%
sialidase: Vibrio cholerae sialidase (Calbiochem) used to treat RBCs | 88%±11% | 182%+17% | no significant effect | 33 | 68%±15% | 53%±13% | 282%±133% | 191%±67% | 81% | 47% | 63% | 36% | percent adherence of nonsickle cells to Siglec-6 after sialidase (Siglec-6-Ig chimera; nonsickle cells): 79%±13%; percent adherence of sickle cells to Siglec-6 after sialidase (Siglec-6-Ig chimera; sickle cells): 157%±18%; hemolysis (RBCs): No hemolysis was detected
thrombin |  |  |  |  |  |  |  |  |  |  |  |  | decrease in rolling velocities of sickle cells [2, 3]: 26%; increase in number of rolling sickle cells [2, 3]: 54%; increase in number of firmly adhered sickle cells ([2]; thrombin treatment of HUVECs vs untreated): 130%
B1 |  |  |  |  |  |  |  |  |  |  |  |  | adhesion of sickle and nonsickle cells to immobilized P-selectin (P-selectin-Ig chimera; [4]): did not reduce significantly; adherence of sickle and nonsickle cells to untreated and thrombin-treated endothelial cells [1, 4]: reduced substantially
